Data: PubChem BioAssay (NCI)
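Step 1: Grow cells in 96-well plates. Step 2: Expose to compound for 48 hours at 5 concentrations. Step 3: Interpolate endpoints linearly; if unreached, use highest concentration. At the GI50, growth is halved. TGI is the concentration that stops growth completely.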

Assays:
Assay in all cases: growth of human tumour cells (NCI), 48 h
TK-10 renal = tested on: TK-10 renal
MDA-MB-231 breast = tested on: MDA-MB-231 breast
UACC-257 melanoma = tested on: UACC-257 melanoma
SF-268 CNS = tested on: SF-268 CNS
M14 melanoma = tested on: M14 melanoma
NCI-H460 lung = tested on: NCI-H460 lung
SK-MEL-28 melanoma = tested on: SK-MEL-28 melanoma
HOP-92 NSCLC = tested on: HOP-92 NSCLC
A549 NSCLC = tested on: A549 NSCLC
PC-3 prostate = tested on: PC-3 prostate
SF-295 CNS = tested on: SF-295 CNS
DU-145 prostate = tested on: DU-145 prostate
786-0 renal = tested on: 786-0 renal
BT-549 breast = tested on: BT-549 breast
SNB-19 CNS = tested on: SNB-19 CNS
SNB-75 CNS = tested on: SNB-75 CNS
OVCAR-4 ovarian = tested on: OVCAR-4 ovarian
SK-MEL-2 melanoma = tested on: SK-MEL-2 melanoma
NCI-H226 lung = tested on: NCI-H226 lung
LOX IMVI melanoma = tested on: LOX IMVI melanoma
MDA-MB-435 = tested on: MDA-MB-435
NCI/ADR-RES ovarian = tested on: NCI/ADR-RES ovarian
HCT-116 colon = tested on: HCT-116 colon
NCI-H23 lung = tested on: NCI-H23 lung
SK-MEL-5 melanoma = tested on: SK-MEL-5 melanoma
A498 renal = tested on: A498 renal
OVCAR-5 ovarian = tested on: OVCAR-5 ovarian
SK-OV-3 ovarian = tested on: SK-OV-3 ovarian
EKVX NSCLC = tested on: EKVX NSCLC
U251 CNS = tested on: U251 CNS
COLO 205 colon = tested on: COLO 205 colon
UACC-62 melanoma = tested on: UACC-62 melanoma
RPMI-8226 leukemia = tested on: RPMI-8226 leukemia
HCT-15 colon = tested on: HCT-15 colon
OVCAR-3 ovarian = tested on: OVCAR-3 ovarian
T-47D breast = tested on: T-47D breast
HOP-62 NSCLC = tested on: HOP-62 NSCLC
ACHN renal = tested on: ACHN renal
MCF7 breast = tested on: MCF7 breast
RXF 393 renal = tested on: RXF 393 renal
CAKI-1 renal = tested on: CAKI-1 renal
CCRF-CEM leukemia = tested on: CCRF-CEM leukemia
KM12 colon = tested on: KM12 colon
UO-31 renal = tested on: UO-31 renal
HCC-2998 colon = tested on: HCC-2998 colon
SW-620 colon = tested on: SW-620 colon
MALME-3M melanoma = tested on: MALME-3M melanoma
IGROV1 ovarian = tested on: IGROV1 ovarian
NCI-H522 lung = tested on: NCI-H522 lung
HT29 colon = tested on: HT29 colon
HL-60(TB) leukemia = tested on: HL-60(TB) leukemia
MOLT-4 leukemia = tested on: MOLT-4 leukemia
SN12C renal = tested on: SN12C renal
SR leukemia = tested on: SR leukemia
OVCAR-8 ovarian = tested on: OVCAR-8 ovarian
SF-539 CNS = tested on: SF-539 CNS

## CN(C)C(=O)C(F)(F)C(c1ccc(C(F)(F)F)cc1)C1C(=O)N(C)C(=O)N(C)C1=O (stereo unspecified)
TK-10 renal
  TGI: > 100 µM
MDA-MB-231 breast
  TGI: > 100 µM
UACC-257 melanoma
  TGI: > 100 µM
SF-268 CNS
  TGI: > 100 µM
M14 melanoma
  TGI: > 100 µM
NCI-H460 lung
  TGI: > 100 µM
SK-MEL-28 melanoma
  TGI: > 100 µM
HOP-92 NSCLC
  TGI: > 100 µM
A549 NSCLC
  TGI: > 100 µM
PC-3 prostate
  TGI: > 100 µM
SF-295 CNS
  TGI: > 100 µM
DU-145 prostate
  TGI: > 100 µM
786-0 renal
  TGI: > 100 µM
BT-549 breast
  TGI: > 100 µM
SNB-19 CNS
  TGI: > 100 µM
SNB-75 CNS
  TGI: > 100 µM
OVCAR-4 ovarian
  TGI: > 100 µM
SK-MEL-2 melanoma
  TGI: > 100 µM
NCI-H226 lung
  TGI: > 100 µM
LOX IMVI melanoma
  TGI: > 100 µM
MDA-MB-435
  TGI: > 100 µM
NCI/ADR-RES ovarian
  TGI: > 100 µM
HCT-116 colon
  TGI: > 100 µM
NCI-H23 lung
  TGI: > 100 µM
SK-MEL-5 melanoma
  TGI: > 100 µM
A498 renal
  TGI: > 100 µM
OVCAR-5 ovarian
  TGI: > 100 µM
SK-OV-3 ovarian
  TGI: > 100 µM
EKVX NSCLC
  TGI: > 100 µM
U251 CNS
  TGI: > 100 µM
COLO 205 colon
  TGI: > 100 µM
UACC-62 melanoma
  TGI: > 100 µM
RPMI-8226 leukemia
  TGI: > 100 µM
HCT-15 colon
  TGI: > 100 µM
OVCAR-3 ovarian
  TGI: > 100 µM
T-47D breast
  TGI: > 100 µM
HOP-62 NSCLC
  TGI: > 100 µM
ACHN renal
  TGI: > 100 µM
MCF7 breast
  TGI: > 100 µM
RXF 393 renal
  TGI: > 100 µM
CAKI-1 renal
  TGI: > 100 µM
CCRF-CEM leukemia
  TGI: > 100 µM
KM12 colon
  TGI: > 100 µM
UO-31 renal
  TGI: > 100 µM
HCC-2998 colon
  TGI: > 100 µM
SW-620 colon
  TGI: > 100 µM

## CCCCC/C=C\C/C=C/CCCCCCCCNC(=O)Nc1ccc([N+](=O)[O-])cc1
TK-10 renal
  GI50: > 100 µM
  TGI: > 100 µM
MDA-MB-231 breast
  GI50: 13.9 µM
  TGI: > 100 µM
UACC-257 melanoma
  GI50: 40.7 µM
  TGI: > 100 µM
MALME-3M melanoma
  GI50: 25.2 µM
  TGI: 84.4 µM
IGROV1 ovarian
  GI50: 26.4 µM
  TGI: > 100 µM
SF-268 CNS
  GI50: 38 µM
  TGI: > 100 µM
M14 melanoma
  GI50: 6.9 µM
  TGI: 77.5 µM
NCI-H460 lung
  GI50: 21.9 µM
  TGI: > 100 µM
NCI-H522 lung
  GI50: 11.5 µM
  TGI: > 100 µM
SK-MEL-28 melanoma
  GI50: 32.7 µM
  TGI: > 100 µM
HT29 colon
  GI50: 25.1 µM
  TGI: > 100 µM
HOP-92 NSCLC
  GI50: 4.27 µM
  TGI: 35.4 µM
A549 NSCLC
  GI50: 38.2 µM
  TGI: > 100 µM
PC-3 prostate
  GI50: 4.45 µM
  TGI: > 100 µM
SF-295 CNS
  GI50: 4.96 µM
  TGI: > 100 µM
HL-60(TB) leukemia
  GI50: 19.9 µM
  TGI: 47.5 µM
DU-145 prostate
  GI50: 40.1 µM
  TGI: > 100 µM
786-0 renal
  GI50: 29.5 µM
  TGI: > 100 µM
BT-549 breast
  GI50: 28.2 µM
  TGI: 65.3 µM
SNB-19 CNS
  GI50: 9.07 µM
  TGI: > 100 µM
SNB-75 CNS
  GI50: 22.9 µM
  TGI: > 100 µM
OVCAR-4 ovarian
  GI50: 13.5 µM
  TGI: > 100 µM
MOLT-4 leukemia
  GI50: 5.68 µM
  TGI: 41.4 µM
SK-MEL-2 melanoma
  GI50: 32.3 µM
  TGI: > 100 µM
NCI-H226 lung
  GI50: 14.8 µM
  TGI: > 100 µM
LOX IMVI melanoma
  GI50: 5.75 µM
  TGI: > 100 µM
MDA-MB-435
  GI50: 8.21 µM
  TGI: > 100 µM
NCI/ADR-RES ovarian
  GI50: 7.8 µM
  TGI: > 100 µM
HCT-116 colon
  GI50: 4.17 µM
  TGI: 35.6 µM
NCI-H23 lung
  GI50: 5.19 µM
  TGI: 72 µM
SN12C renal
  GI50: 8.12 µM
  TGI: > 100 µM
SR leukemia
  GI50: 10.8 µM
  TGI: 37.6 µM
OVCAR-8 ovarian
  GI50: 8.82 µM
  TGI: > 100 µM
SK-MEL-5 melanoma
  GI50: 14.8 µM
  TGI: 32.4 µM
OVCAR-5 ovarian
  GI50: 30.8 µM
  TGI: > 100 µM
SK-OV-3 ovarian
  GI50: 40.7 µM
  TGI: > 100 µM
EKVX NSCLC
  GI50: 23.8 µM
  TGI: > 100 µM
U251 CNS
  GI50: 6.05 µM
  TGI: > 100 µM
COLO 205 colon
  GI50: 15 µM
  TGI: 28.9 µM
UACC-62 melanoma
  GI50: 2.9 µM
  TGI: > 100 µM
RPMI-8226 leukemia
  GI50: 4.54 µM
  TGI: 39.5 µM
HCT-15 colon
  GI50: 8.81 µM
  TGI: > 100 µM
OVCAR-3 ovarian
  GI50: 6.74 µM
  TGI: > 100 µM
T-47D breast
  GI50: 22.7 µM
  TGI: > 100 µM
HOP-62 NSCLC
  GI50: 40.8 µM
  TGI: > 100 µM
ACHN renal
  GI50: 6.8 µM
  TGI: > 100 µM
MCF7 breast
  GI50: 23.7 µM
  TGI: > 100 µM
RXF 393 renal
  GI50: 24.1 µM
  TGI: 73.8 µM
SF-539 CNS
  GI50: 41.4 µM
  TGI: > 100 µM
CAKI-1 renal
  GI50: 5.9 µM
  TGI: > 100 µM
CCRF-CEM leukemia
  GI50: 4.59 µM
  TGI: > 100 µM
KM12 colon
  GI50: 6.96 µM
  TGI: > 100 µM
UO-31 renal
  GI50: 24.3 µM
  TGI: > 100 µM
HCC-2998 colon
  GI50: 15.7 µM
  TGI: > 100 µM
SW-620 colon
  GI50: 5.51 µM
  TGI: > 100 µM
